Assay results taken from ChEMBL document CHEMBL1629674, “Surveillance of carbapenem-resistant Pseudomonas aeruginosa isolates from Puerto Rican Medical Center Hospitals: dissemination of KPC and IMP-18 beta-lactamases” (2009).
≈ marks a conversion by molar mass, not a printed value.

How the values were obtained:
Pseudomonas aeruginosa [1] = assay: Antimicrobial activity against OprD overproducing Pseudomonas aeruginosa PAO1 expressing mexA and oprD by agar dilution method; type: functional
Pseudomonas aeruginosa [2] = assay: Antimicrobial activity against Pseudomonas aeruginosa PS2 with PFGE phenotype 10B obtained from urine of ICU patient by agar dilution method; type: functional
Pseudomonas aeruginosa [3] = assay: Antimicrobial activity against Pseudomonas aeruginosa PS3 with PFGE phenotype 12 obtained from sputum of ICU patient by agar dilution method; type: functional
Pseudomonas aeruginosa [4] = assay: Antimicrobial activity against Pseudomonas aeruginosa PS4 with PFGE phenotype 9B expressing beta-lactamase IMP-18 obtained from sputum of patient by agar dilution method; type: functional
Pseudomonas aeruginosa [5] = assay: Antimicrobial activity against Pseudomonas aeruginosa PS5 with PFGE phenotype 7A expressing beta-lactamase KPC-2 obtained from sputum of ICU patient by agar dilution method; type: functional
Pseudomonas aeruginosa [6] = assay: Antimicrobial activity against Pseudomonas aeruginosa PS6A with PFGE phenotype 11A obtained from sputum of ICU patient by agar dilution method; type: functional
Pseudomonas aeruginosa [7] = assay: Antimicrobial activity against Pseudomonas aeruginosa PS7A with PFGE phenotype 11D obtained from urine of ICU patient by agar dilution method; type: functional
Pseudomonas aeruginosa [8] = assay: Antimicrobial activity against Pseudomonas aeruginosa PS9 with PFGE phenotype 3B obtained from sputum of patient by agar dilution method; type: functional
Pseudomonas aeruginosa [9] = assay: Antimicrobial activity against Pseudomonas aeruginosa PS10 with PFGE phenotype 1A expressing beta-lactamase KPC-2 obtained from blood of patient by agar dilution method; type: functional
Pseudomonas aeruginosa [10] = assay: Antimicrobial activity against Pseudomonas aeruginosa PS11A with PFGE phenotype 7A obtained from sputum of ICU patient by agar dilution method; type: functional
Pseudomonas aeruginosa [11] = assay: Antimicrobial activity against Pseudomonas aeruginosa PS12 with PFGE phenotype 7B obtained from sputum of patient by agar dilution method; type: functional
Pseudomonas aeruginosa [12] = assay: Antimicrobial activity against Pseudomonas aeruginosa PS13 with PFGE phenotype 11E obtained from sputum of ICU patient by agar dilution method; type: functional
Pseudomonas aeruginosa [13] = assay: Antimicrobial activity against Pseudomonas aeruginosa PS14 with PFGE phenotype 10C obtained from sputum of ICU patient by agar dilution method; type: functional
Pseudomonas aeruginosa [14] = assay: Antimicrobial activity against Pseudomonas aeruginosa PS15A with PFGE phenotype 10A obtained from blood of patient by agar dilution method; type: functional
Pseudomonas aeruginosa [15] = assay: Antimicrobial activity against Pseudomonas aeruginosa PS17B with PFGE phenotype 11D expressing beta-lactamase KPC-2 obtained from blood of ICU patient by agar dilution method; type: functional
Pseudomonas aeruginosa [16] = assay: Antimicrobial activity against Pseudomonas aeruginosa PS18A with PFGE phenotype 11D obtained from CSF of ICU patient by agar dilution method; type: functional
Pseudomonas aeruginosa [17] = assay: Antimicrobial activity against Pseudomonas aeruginosa PS19A with PFGE phenotype 11C obtained from urine of patient by agar dilution method; type: functional
Pseudomonas aeruginosa [18] = assay: Antimicrobial activity against Pseudomonas aeruginosa PS20A with PFGE phenotype 11D obtained from skin of patient by agar dilution method; type: functional
Pseudomonas aeruginosa [19] = assay: Antimicrobial activity against Pseudomonas aeruginosa PS21 with PFGE phenotype 11F obtained from skin of patient by agar dilution method; type: functional
Pseudomonas aeruginosa [20] = assay: Antimicrobial activity against Pseudomonas aeruginosa PS22 with PFGE phenotype 3A obtained from urine of patient by agar dilution method; type: functional
Pseudomonas aeruginosa [21] = assay: Antimicrobial activity against Pseudomonas aeruginosa PS23 with PFGE phenotype 4A expressing beta-lactamase KPC-2 obtained from blood of patient by agar dilution method; type: functional
Pseudomonas aeruginosa [22] = assay: Antimicrobial activity against Pseudomonas aeruginosa PS25 with PFGE phenotype 1A obtained from sputum of patient by agar dilution method; type: functional
Pseudomonas aeruginosa [23] = assay: Antimicrobial activity against Pseudomonas aeruginosa PS26 with PFGE phenotype 3A expressing beta-lactamase OXA-2 obtained from sputum of ICU patient by agar dilution method; type: functional
Pseudomonas aeruginosa [24] = assay: Antimicrobial activity against Pseudomonas aeruginosa PS28 with PFGE phenotype 6 expressing beta-lactamase KPC-5 obtained from skin of patient by agar dilution method; type: functional
Pseudomonas aeruginosa [25] = assay: Antimicrobial activity against Pseudomonas aeruginosa PS29 with PFGE phenotype 11D obtained from sputum of patient by agar dilution method; type: functional
Pseudomonas aeruginosa [26] = assay: Antimicrobial activity against Pseudomonas aeruginosa PS30 with PFGE phenotype 11D obtained from sputum of patient by agar dilution method; type: functional
Pseudomonas aeruginosa [27] = assay: Antimicrobial activity against Pseudomonas aeruginosa PS31 with PFGE phenotype 11B obtained from skin of patient by agar dilution method; type: functional
Pseudomonas aeruginosa [28] = assay: Antimicrobial activity against Pseudomonas aeruginosa PS33 with PFGE phenotype 9A obtained from blood of patient by agar dilution method; type: functional
Pseudomonas aeruginosa [29] = assay: Antimicrobial activity against Pseudomonas aeruginosa PS34 with PFGE phenotype 4A obtained from blood of ICU patient by agar dilution method; type: functional
Pseudomonas aeruginosa [30] = assay: Antimicrobial activity against Pseudomonas aeruginosa PS35 with PFGE phenotype 11A obtained from urine of patient by agar dilution method; type: functional
Pseudomonas aeruginosa [31] = assay: Antimicrobial activity against Pseudomonas aeruginosa PS36 with PFGE phenotype 11B obtained from urine of patient by agar dilution method; type: functional
Pseudomonas aeruginosa [32] = assay: Antimicrobial activity against Pseudomonas aeruginosa PS37 with PFGE phenotype 11D obtained from sputum of patient by agar dilution method; type: functional
Pseudomonas aeruginosa [33] = assay: Antimicrobial activity against Pseudomonas aeruginosa PS39 with PFGE phenotype 8 expressing beta-lactamase IMP-18 obtained from urine of patient by agar dilution method; type: functional
Pseudomonas aeruginosa [34] = assay: Antimicrobial activity against Pseudomonas aeruginosa PS40 with PFGE phenotype 5 expressing beta-lactamase KPC-2, OXA-2 obtained from urine of patient by agar dilution method; type: functional
Pseudomonas aeruginosa [35] = assay: Antimicrobial activity against Pseudomonas aeruginosa PS41 with PFGE phenotype 11D obtained from urine of patient by agar dilution method; type: functional
Pseudomonas aeruginosa [36] = assay: Antimicrobial activity against Pseudomonas aeruginosa PS43 with PFGE phenotype 2 expressing beta-lactamase KPC-2, OXA-2 obtained from skin of ICU patient by agar dilution method; type: functional
Pseudomonas aeruginosa [37] = assay: Antimicrobial activity against Pseudomonas aeruginosa PS44 with PFGE phenotype 13 expressing beta-lactamase IMP-18 obtained from blood of patient by agar dilution method; type: functional
Pseudomonas aeruginosa [38] = assay: Antimicrobial activity against Pseudomonas aeruginosa PS1 with PFGE phenotype 9C negative for blaIMP, blaVIM and blaKPC obtained from sputum of patient by agar dilution method

Compound CC(C)(O/N=C(\C(=O)N[C@@H]1C(=O)N2C(C(=O)[O-])=C(C[n+]3ccccc3)CS[C@H]12)c1csc(N)n1)C(=O)O [CEFTAZIDIME] has an MIC (Pseudomonas aeruginosa [1]) of 1 µg/mL (≈ 1.83 µM), an MIC (Pseudomonas aeruginosa [2]) of 128 µg/mL (≈ 234 µM) and an MIC (Pseudomonas aeruginosa [3]) of 4 µg/mL (≈ 7.32 µM). For the same compound, the MIC (Pseudomonas aeruginosa [4]) was over 128 µg/mL, the MIC (Pseudomonas aeruginosa [5]) was 64 µg/mL (≈ 117 µM) and the MIC (Pseudomonas aeruginosa [6]) was 32 µg/mL (≈ 58.5 µM). For the same compound, the MIC (Pseudomonas aeruginosa [7]) was 64 µg/mL (≈ 117 µM), the MIC (Pseudomonas aeruginosa [8]) was 8 µg/mL (≈ 14.6 µM) and the MIC (Pseudomonas aeruginosa [9]) was 64 µg/mL (≈ 117 µM). For the same compound, the MIC (Pseudomonas aeruginosa [10]) was 32 µg/mL (≈ 58.5 µM), the MIC (Pseudomonas aeruginosa [11]) was 64 µg/mL (≈ 117 µM) and the MIC (Pseudomonas aeruginosa [12]) was 64 µg/mL (≈ 117 µM). The MIC (Pseudomonas aeruginosa [13]) was 64 µg/mL (≈ 117 µM), the MIC (Pseudomonas aeruginosa [14]) was 128 µg/mL (≈ 234 µM) and the MIC (Pseudomonas aeruginosa [15]) was 64 µg/mL (≈ 117 µM). For the same compound, the MIC (Pseudomonas aeruginosa [16]) was 32 µg/mL (≈ 58.5 µM), the MIC (Pseudomonas aeruginosa [17]) was 64 µg/mL (≈ 117 µM) and the MIC (Pseudomonas aeruginosa [18]) was 64 µg/mL (≈ 117 µM). The MIC (Pseudomonas aeruginosa [19]) was 64 µg/mL (≈ 117 µM), the MIC (Pseudomonas aeruginosa [20]) was 16 µg/mL (≈ 29.3 µM) and the MIC (Pseudomonas aeruginosa [21]) was 128 µg/mL (≈ 234 µM). For the same compound, the MIC (Pseudomonas aeruginosa [22]) was 64 µg/mL (≈ 117 µM), the MIC (Pseudomonas aeruginosa [23]) was 8 µg/mL (≈ 14.6 µM) and the MIC (Pseudomonas aeruginosa [24]) was 128 µg/mL (≈ 234 µM). For the same compound, the MIC (Pseudomonas aeruginosa [25]) was 64 µg/mL (≈ 117 µM), the MIC (Pseudomonas aeruginosa [26]) was 64 µg/mL (≈ 117 µM) and the MIC (Pseudomonas aeruginosa [27]) was 64 µg/mL (≈ 117 µM). The MIC (Pseudomonas aeruginosa [28]) was over 128 µg/mL, the MIC (Pseudomonas aeruginosa [29]) was 64 µg/mL (≈ 117 µM) and the MIC (Pseudomonas aeruginosa [30]) was 64 µg/mL (≈ 117 µM). The MIC (Pseudomonas aeruginosa [31]) was 64 µg/mL (≈ 117 µM), the MIC (Pseudomonas aeruginosa [32]) was 64 µg/mL (≈ 117 µM) and the MIC (Pseudomonas aeruginosa [33]) was over 128 µg/mL. The MIC (Pseudomonas aeruginosa [34]) was 32 µg/mL (≈ 58.5 µM), the MIC (Pseudomonas aeruginosa [35]) was 64 µg/mL (≈ 117 µM) and the MIC (Pseudomonas aeruginosa [36]) was 16 µg/mL (≈ 29.3 µM). It also gave an MIC (Pseudomonas aeruginosa [37]) of over 128 µg/mL and an MIC (Pseudomonas aeruginosa [38]) of 2 µg/mL (≈ 3.66 µM).

With C[C@@H](O)[C@H]1C(=O)N2C(C(=O)O)=C(SCCNC=N)C[C@H]12 [IMIPENEM ANHYDROUS] the MIC (Pseudomonas aeruginosa [1]) was 1 µg/mL (≈ 3.34 µM), the MIC (Pseudomonas aeruginosa [2]) was 64 µg/mL (≈ 214 µM) and the MIC (Pseudomonas aeruginosa [3]) was 16 µg/mL (≈ 53.4 µM). It also gave an MIC (Pseudomonas aeruginosa [4]) of over 64 µg/mL, an MIC (Pseudomonas aeruginosa [5]) of over 64 µg/mL and an MIC (Pseudomonas aeruginosa [6]) of over 64 µg/mL. For the same compound, the MIC (Pseudomonas aeruginosa [7]) was over 64 µg/mL, the MIC (Pseudomonas aeruginosa [8]) was 8 µg/mL (≈ 26.7 µM) and the MIC (Pseudomonas aeruginosa [9]) was over 64 µg/mL. For the same compound, the MIC (Pseudomonas aeruginosa [10]) was over 64 µg/mL, the MIC (Pseudomonas aeruginosa [11]) was over 64 µg/mL and the MIC (Pseudomonas aeruginosa [12]) was over 64 µg/mL. For the same compound, the MIC (Pseudomonas aeruginosa [13]) was 64 µg/mL (≈ 214 µM), the MIC (Pseudomonas aeruginosa [14]) was 32 µg/mL (≈ 107 µM) and the MIC (Pseudomonas aeruginosa [15]) was over 64 µg/mL. It also gave an MIC (Pseudomonas aeruginosa [16]) of over 64 µg/mL, an MIC (Pseudomonas aeruginosa [17]) of over 64 µg/mL and an MIC (Pseudomonas aeruginosa [18]) of over 64 µg/mL. It also gave an MIC (Pseudomonas aeruginosa [19]) of over 64 µg/mL, an MIC (Pseudomonas aeruginosa [20]) of 8 µg/mL (≈ 26.7 µM) and an MIC (Pseudomonas aeruginosa [21]) of over 64 µg/mL. For the same compound, the MIC (Pseudomonas aeruginosa [22]) was over 64 µg/mL, the MIC (Pseudomonas aeruginosa [23]) was 8 µg/mL (≈ 26.7 µM) and the MIC (Pseudomonas aeruginosa [24]) was over 64 µg/mL. It also gave an MIC (Pseudomonas aeruginosa [25]) of over 64 µg/mL, an MIC (Pseudomonas aeruginosa [26]) of over 64 µg/mL and an MIC (Pseudomonas aeruginosa [27]) of over 64 µg/mL. For the same compound, the MIC (Pseudomonas aeruginosa [28]) was 64 µg/mL (≈ 214 µM), the MIC (Pseudomonas aeruginosa [29]) was over 64 µg/mL and the MIC (Pseudomonas aeruginosa [30]) was over 64 µg/mL. The MIC (Pseudomonas aeruginosa [31]) was over 64 µg/mL, the MIC (Pseudomonas aeruginosa [32]) was over 64 µg/mL and the MIC (Pseudomonas aeruginosa [33]) was over 64 µg/mL. It also gave an MIC (Pseudomonas aeruginosa [34]) of over 64 µg/mL, an MIC (Pseudomonas aeruginosa [35]) of over 64 µg/mL and an MIC (Pseudomonas aeruginosa [36]) of 16 µg/mL (≈ 53.4 µM). For the same compound, the MIC (Pseudomonas aeruginosa [37]) was 64 µg/mL (≈ 214 µM) and the MIC (Pseudomonas aeruginosa [38]) was 16 µg/mL (≈ 53.4 µM).

Work on C[C@@H](O)[C@H]1C(=O)N2C(C(=O)O)=C(S[C@@H]3CN[C@H](C(=O)N(C)C)C3)[C@H](C)[C@H]12 [MEROPENEM] yielded an MIC (Pseudomonas aeruginosa [1]) of 0.5 µg/mL (≈ 1.3 µM), an MIC (Pseudomonas aeruginosa [2]) of 16 µg/mL (≈ 41.7 µM) and an MIC (Pseudomonas aeruginosa [3]) of 8 µg/mL (≈ 20.9 µM). It also gave an MIC (Pseudomonas aeruginosa [8]) of 16 µg/mL (≈ 41.7 µM), an MIC (Pseudomonas aeruginosa [11]) of 32 µg/mL (≈ 83.4 µM) and an MIC (Pseudomonas aeruginosa [13]) of 16 µg/mL (≈ 41.7 µM). It also gave an MIC (Pseudomonas aeruginosa [14]) of 16 µg/mL (≈ 41.7 µM), an MIC (Pseudomonas aeruginosa [20]) of 16 µg/mL (≈ 41.7 µM) and an MIC (Pseudomonas aeruginosa [23]) of 16 µg/mL (≈ 41.7 µM). For the same compound, the MIC (Pseudomonas aeruginosa [28]) was 32 µg/mL (≈ 83.4 µM), the MIC (Pseudomonas aeruginosa [36]) was 32 µg/mL (≈ 83.4 µM) and the MIC (Pseudomonas aeruginosa [37]) was 32 µg/mL (≈ 83.4 µM). For the same compound, the MIC (Pseudomonas aeruginosa [38]) was 8 µg/mL (≈ 20.9 µM).
